Reference: patent US5563121A, “Peptide linkage unit” (priority 1994, dated 1996)
*1 amine or outer side, *2 acyl side, *3 side chain or, on linkers, in order; H or OH if unused. Where a SMILES comes first, the peptide text is derived from it. [ ]: non-standard residue; d: D form. X1 = O=C([C@@H]1CCCN1CP(=O)(O)C(Cc1ccccc1)N[*:1])[*:2]

Target: T1, Synthetic HIV-1 proteinase (Human immunodeficiency virus type 1 group M subtype B, UniProt P03369)
T1 construct: Synthetic HIV-1 proteinase; made in house; host or cells: chemical synthesis (no expression host); gift of Dr. Stephen Kent, The Scripps Research Institute
Experiment: HPLC assay of HIV-1 PR inhibition
Assay type: biochemical
Details: HIV substrate IV, pH 6.2, 25° C.
Protocol: Typical reactions were carried out at room temperature (25° C.) in 150 μl total volumes of 100 mM MES buffer, pH 6.2, containing 1 mM ethylenediaminetetra-acetic acid (EDTA) and 2 mM dithiothreitol (DTT) plus 0.1 percent (v/v) Triton X-100.
Synthetic HIV-1 proteinase [0.5 μg, obtained from Dr. Stephen Kent of The Scripps Research Institute; see Cell, 54:363-368 (July 29, 1988)] was first incubated in buffer with (or without) various concentrations of "inhibitor(s)" for 30 minutes at 25° C. The proteinase reaction was then initiated by the addition of HIV substrate IV (Bachem Bioscience Inc.) at fixed concentrations. HIV Substrate IV has the sequence
Lys-Ala-Arg-Val-Nle-p-NO2 Phe-Glu-Ala-Nle-NH2 (SEQ ID NO: 32).
At three appropriate times (normally 15, 30 and 45 minutes) the hydrolysis was stopped by adding a 40 μl aliquot from the reaction to 40 μl of a prepared quench solution. The quench solution was 1:4 acetonitrile:water (3 percent trifluoroacetic acid; TFA) and contained 150 μM m-toluic acid which served as an HPLC standard. […] Reaction progress was monitored by following the increasing absorbance (peak height) of the substrate IV cleavage product detected at […].

## CC[C@H](C)[C@H](NC(=O)[C@@H]1CCCN1CP(=O)(O)C(Cc1ccccc1)NC(=O)[C@H](CC(N)=O)NC(=O)[C@H](CC(C)C)NC(=O)[C@H](CO)NC(C)=O)C(=O)N[C@H](C(=O)OC)C(C)C (stereo partly drawn) [Compound 6, CH3 C(O)-Ser-Leu-Asn-Phe.psi.[PO2^- CH2 NH^+ ]Pro-Ile-Val-OCH3] (Ac-SLN[X1]IV-OMe)
One stereoisomer of Compound 6
  Ki: ~600 µM
The other (more active) isomer of Compound 6
  Ki: ~0.01 µM
